Consider 17 molecules from ChEMBL document CHEMBL3751775, “Identification of B. anthracis N(5)-carboxyaminoimidazole ribonucleotide mutase (PurE) active site binding compounds via fragment library screening” (Bioorg Med Chem, 2016).

Some results are limits rather than exact numbers.

A short description of data set [1]: Binding affinity to Bacillus anthracis PurE by intrinsic tryptophan fluorescence analysis.
The nature of data set [2]: Binding affinity to Bacillus anthracis PurE by Surface Plasmon Resonance analysis.
The test system of data set [3] is Bacillus anthracis. Kind of data set: Inhibition of Bacillus anthracis PurE using CAIR as substrate at 100 uM preincubated for 5 mins followed by substrate addition by UV spectroscopic analysis.
Data set [4] can be described thus: Binding affinity to Escherichia coli PurE by Surface Plasmon Resonance analysis.
Data set [5] has as its system Bacillus anthracis. The data set can be described thus: Inhibition of Bacillus anthracis PurE using CAIR as substrate at 25 uM preincubated for 5 mins followed by substrate addition by UV spectroscopic analysis.
Data set [6] is described as follows: Aqueous solubility of the compound. Format: physicochemical.

For `Nc1nn2c(-c3ccccc3)nnc2s1`, the Kd (usually the free concentration of one partner at which half of the binding sites on the other are occupied at equilibrium, for simple one-to-one binding) in data set [1] (read-out: Kd) was found to be 604 µM; in data set [2] it was 121 µM. With `Cc1ccc(C(=S)c2nnns2)cc1`, the equilibrium dissociation constant (Kd) in data set [1] (read-out: Kd) is 81.3 µM; in data set [2] it was 60.8 µM. Also, the inhibition (as a rule, how much of the control response was suppressed) in data set [3] is 36%. Regarding `Cc1cc(C(=O)Nc2cccc(F)c2)no1`, the results for the Kd in data set [1] (read-out: Kd) and in data set [2] were 95.4 µM and 79.8 µM, respectively. For `CCOc1ccccc1C(=S)N1CCOCC1` the same measures were 61.6 µM and 73 µM. As to `NC(=S)N1CCc2ccccc21`, the Kd in data set [1] (read-out: Kd) was found to be 35.7 µM; in data set [2] it was 35.3 µM. Take `Oc1cc(Cl)c(Cl)cc1O`: the dissociation constant (Kd) is 182 µM in data set [1] (read-out: Kd) and 103 µM in data set [2]. For `COc1ccc(-c2cc(N)[nH]n2)cc1` the same measures were 214 µM and 149 µM.

As to `CCOc1cc(CO)c(Br)cc1OC`, the Kd in data set [1] (read-out: Kd) came to 367 µM; in data set [2] it was 157 µM.

In the case of `Nc1c([N+](=O)[O-])ncn1[C@@H]1O[C@H](COP(=O)(O)O)[C@@H](O)[C@H]1O`, the Kd in data set [4] turned out to be 0.086 µM. For the molecule `COc1ccc2ncc(N)cc2c1`, the Kd in data set [1] (read-out: Kd) was found to be 73.8 µM; in data set [2], 261 µM. Take `Cc1ccc(C(N)c2ccncc2)cc1` (stereo not drawn): the Kd entry in data set [1] is “Not Active”; in data set [2], 707 µM. For `CCc1ccc(C(=O)Nc2nncs2)s1`, the Kd came to 19.8 µM in data set [1] (read-out: Kd) and 13.5 µM in data set [2]. The molecule also displayed an inhibition in data set [5] of 49%. Turning to `Cc1cnc(NC(=O)c2ccoc2C)s1`, the Kd in data set [1] (read-out: Kd) stood at 39.6 µM; in data set [2] it was 20.3 µM. Take `O=C(O)c1ccc(O)c(O)c1` [PROTOCATECHUIC ACID]: in data set [6], the solubility (usually the dissolved amount per volume that the medium holds) was above 1200 µM. Moreover, in data set [2], binding was characterised by a dissociation constant (Kd) of 274 µM. Molecule `O=C(O)c1cc2cc(F)ccc2[nH]1` [5-FLUOROINDOLE-2-CARBOXYLIC ACID] showed a Kd in data set [2] of 234 µM.

`NCc1cc(-c2ccccc2Cl)on1`: the Kd in data set [1] (read-out: Kd) worked out at 402 µM; in data set [2] it was 444 µM. Turning to `Nc1cncn1[C@@H]1O[C@H](COP(=O)(O)O)[C@@H](O)[C@H]1O`, the dissociation constant (Kd) in data set [1] (read-out: Kd) was 283 µM.
